Assay [1] has as its system BMSC (primary human bone marrow mesenchymal stromal cells). Kind of assay: drug sensitivity score (DSS); higher = more sensitive.
Assay [2] has the same test system. Put plainly: absolute EC50 for viability; higher = less sensitive.

In the case of `CC(C)(C)c1nc(-c2cccc(NS(=O)(=O)c3c(F)cccc3F)c2F)c(-c2ccnc(N)n2)s1` [Dabrafenib], in assay [1], the drug sensitivity score was found to be 0. In addition, the “absolute EC50 for viability” value in assay [2] is above 2500 nM.
On to `COc1cccc2c1C(=O)c1c(O)c3c(c(O)c1C2=O)C[C@@](O)(/C(CO)=N/NC(=O)CCCCCN1C(=O)C=CC1=O)C[C@@H]3O[C@H]1C[C@H](N)[C@H](O)[C@H](C)O1` [Aldoxorubicin], for which the drug sensitivity score in assay [1] came out at 7.3. Moreover, the “absolute EC50 for viability” value in assay [2] was 944 nM.
The like results for `COc1cc(N2CCC(N3CCN(C)CC3)CC2)ccc1Nc1ncnc(Nc2ccccc2S(=O)(=O)C(C)C)n1` [ASP3026] were, in that order, 6.5 and 2290 nM.
`CN(C)C1CCN(C(=O)c2ccc(NC(=O)Nc3ccc(-c4nc(N5CCOCC5)nc(N5CCOCC5)n4)cc3)cc2)CC1` [Gedatolisib] gave a drug sensitivity score in assay [1] of 14.3. In addition, the “absolute EC50 for viability” value in assay [2] was found to be 43.7 nM.
As for `COc1ccccc1S(=O)(=O)Nc1ccc2c(c1)CN(C)C(=O)N2` [PFI-1], the drug sensitivity score in assay [1] is 1.9. Besides, in assay [2], the “absolute EC50 for viability” value was above 30000 nM.
On to `O=C1Cc2cc(C(=O)NC3C[C@H]4CC[C@@H](C3)N4S(=O)(=O)CC3CCN(CCCC(F)(F)F)CC3)c(Cl)cc2N1` (stereo partly drawn), for which, in assay [1], the drug sensitivity score amounted to 0. Moreover, the “absolute EC50 for viability” value in assay [2] was above 10000 nM.
As to `CC(=O)O[C@H]1C(=O)[C@@]2(C)[C@H]([C@H](OC(=O)c3ccccc3)[C@]3(O)C[C@H](OC(=O)[C@H](O)[C@@H](NC(=O)c4ccccc4)c4ccccc4)C(C)=C1C3(C)C)[C@]1(OC(C)=O)CO[C@@H]1C[C@@H]2O` [Paclitaxel], the drug sensitivity score in assay [1] was determined as 2.7. For the same compound, in assay [2], the “absolute EC50 for viability” value was above 1000 nM.
`O=C(c1ccc(F)c(F)c1Nc1ccc(I)cc1F)N1CC(O)([C@@H]2CCCCN2)C1` [Cobimetinib] registered a drug sensitivity score in assay [1] of 4.3. Also, the “absolute EC50 for viability” value in assay [2] is above 1000 nM.
The like results for `CCOc1cc2ncc(C#N)c(Nc3ccc(OCc4ccccn4)c(Cl)c3)c2cc1NC(=O)/C=C/CN(C)C` [Neratinib] were, in that order, 2.3 and above 1000 nM.
On the same counts, the results for `C[C@@H](C(=O)O)c1ccc(-c2ccccc2)c(F)c1` [Tarenflurbil] are 0 and above 10000 nM.
As to `CC1(C)CNc2cc(NC(=O)c3cccnc3NCc3ccncc3)ccc21` [Motesanib], the drug sensitivity score in assay [1] came out at 0. The “absolute EC50 for viability” value in assay [2] was above 10000 nM.
In assay [1], `Nc1nc(Cl)nc2c1ncn2[C@H]1C[C@H](O)[C@@H](CO)O1` [Cladribine] showed a drug sensitivity score of 2.3. Also, the “absolute EC50 for viability” value in assay [2] is above 1000 nM.
`N#Cc1ccc(COC[C@H]2O[C@@H](n3c(NCc4ccc(Cl)c(Cl)c4)nc4c(N)ncnc43)[C@H](O)[C@@H]2O)cc1` yielded a drug sensitivity score in assay [1] of 2.2. For the same compound, in assay [2], the “absolute EC50 for viability” value is above 10000 nM.
The compound `CN1CC[C@@H](NC(=O)Nc2ccc(C#N)cc2)C[C@@H]1c1nc2ccccc2[nH]1` [Glasdegib] returned a drug sensitivity score in assay [1] of 0. The “absolute EC50 for viability” value in assay [2] was above 1000 nM.
In assay [1], `COc1cc([C@@H]2c3cc4c(cc3[C@@H](O[C@@H]3O[C@@H]5CO[C@@H](C)O[C@H]5[C@H](O)[C@H]3O)[C@H]3COC(=O)[C@H]23)OCO4)cc(OC)c1O` [Etoposide] had a drug sensitivity score of 0. Further, the “absolute EC50 for viability” value in assay [2] was above 10000 nM.
For `CCS(=O)(=O)N1CC(CC#N)(n2cc(-c3ncnc4[nH]ccc34)cn2)C1` [Baricitinib], the drug sensitivity score in assay [1] was 0.1. The “absolute EC50 for viability” value in assay [2] is above 2500 nM.
Take `Cc1ccc(C(=O)Nc2ccc(Oc3cc4cnn(C)c4cc3-c3cn[nH]c3)c(F)c2)c(=O)n1-c1ccc(F)cc1` [Merestinib]: the drug sensitivity score in assay [1] was determined as 1.4. In addition, in assay [2], the “absolute EC50 for viability” value was above 1000 nM.
`COCC[n+]1c2c(n(Cc3cnccn3)c1C)C(=O)c1ccccc1C2=O` [Sepantronium bromide] came in with a drug sensitivity score in assay [1] of 25.4. The “absolute EC50 for viability” value in assay [2] was 70.5 nM.
In the case of `CCNc1nc(Nc2cc(F)c(C(=O)N3CCOCC3)cc2OC)ncc1C(F)(F)F` [GNE-7915], the drug sensitivity score in assay [1] is 0. In assay [2], the “absolute EC50 for viability” value was above 1000 nM.

Values taken from the supplement of paper PMC9103864.
